From ChEMBL document CHEMBL1130518, “11,21-Bisphenyl-19-norpregnane derivatives are selective antiglucocorticoids” (Bioorg Med Chem Lett, 1997)

Experiments:
[1] = molecular target: T1, Progesterone receptor (Homo sapiens) (UniProt P06401); test: Relative binding affinity for human progesterone receptor in MCF-7 cell cytosols compared to Org 2058; format: cell-based
T1 sequence (whole entry): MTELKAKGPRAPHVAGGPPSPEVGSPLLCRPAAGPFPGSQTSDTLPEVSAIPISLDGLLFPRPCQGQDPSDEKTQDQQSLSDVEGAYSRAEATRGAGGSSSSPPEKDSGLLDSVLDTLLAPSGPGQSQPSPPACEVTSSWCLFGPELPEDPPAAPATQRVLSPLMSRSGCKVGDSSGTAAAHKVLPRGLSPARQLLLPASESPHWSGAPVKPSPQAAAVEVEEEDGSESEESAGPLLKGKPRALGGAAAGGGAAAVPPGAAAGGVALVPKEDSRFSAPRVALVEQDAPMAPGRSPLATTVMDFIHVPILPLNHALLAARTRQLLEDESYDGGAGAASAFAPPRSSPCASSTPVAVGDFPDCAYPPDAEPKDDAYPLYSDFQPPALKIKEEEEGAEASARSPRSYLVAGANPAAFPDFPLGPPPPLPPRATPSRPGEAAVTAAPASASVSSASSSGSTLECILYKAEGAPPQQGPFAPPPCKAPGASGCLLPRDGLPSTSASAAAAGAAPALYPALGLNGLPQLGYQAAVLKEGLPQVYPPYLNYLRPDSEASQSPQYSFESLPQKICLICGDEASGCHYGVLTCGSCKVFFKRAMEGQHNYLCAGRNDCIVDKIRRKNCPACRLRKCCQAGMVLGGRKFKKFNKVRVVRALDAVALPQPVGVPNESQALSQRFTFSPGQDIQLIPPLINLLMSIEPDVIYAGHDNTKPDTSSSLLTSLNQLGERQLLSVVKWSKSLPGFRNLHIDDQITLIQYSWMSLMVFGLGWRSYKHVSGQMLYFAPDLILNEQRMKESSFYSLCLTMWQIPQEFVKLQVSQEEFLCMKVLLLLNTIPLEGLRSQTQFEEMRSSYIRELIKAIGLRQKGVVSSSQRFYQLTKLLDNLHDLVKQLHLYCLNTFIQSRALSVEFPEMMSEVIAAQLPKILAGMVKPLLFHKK

[2] = Ratio of compound to that of glucocorticoid receptor binding and progesterone receptor binding was determined

Affinity [1] [%]	Ratio [2]	Structure (SMILES)
0.2	490	C[C@]12C[C@H](c3ccc4c(c3)OCCO4)C3=C4CCC(=O)C=C4CCC3C1CC[C@@]2(O)C#Cc1ccc(N2CCCC2=O)cc1 (some centres undefined)
1.7	49	CN(C)c1ccc(C#C[C@]2(O)CCC3C4CCC5=CC(=O)CCC5=C4[C@@H](c4ccc(N(C)C)cc4)C[C@@]32C)cc1 (some centres undefined)
0.4	488	C[C@]12C[C@H](c3ccc4c(c3)OCO4)C3=C4CCC(=O)C=C4CCC3C1CC[C@@]2(O)C#Cc1ccc(S(C)(=O)=O)cc1 (some centres undefined)
2	44	CN(C)c1ccc([C@H]2C[C@@]3(C)C(CC[C@@]3(O)C#Cc3ccc(S(C)(=O)=O)cc3)C3CCC4=CC(=O)CCC4=C32)cc1 (some centres undefined)

Further lines, the compound ahead of its results:

Structure (SMILES)	Affinity [1] [%]	Ratio [2]
CC#C[C@]1(O)CC[C@H]2[C@@H]3CCC4=CC(=O)CCC4=C3[C@@H](c3ccc(N(C)C)cc3)C[C@@]21C	36	5.4
CN(C)c1ccc(/C=C/[C@]2(O)CCC3C4CCC5=CC(=O)CCC5=C4[C@@H](c4ccc(N(C)C)cc4)C[C@@]32C)cc1 (some centres undefined)	6.1	1
CN(C)c1ccc([C@H]2C[C@@]3(C)C(CC[C@@]3(O)C#Cc3ccccc3)C3CCC4=CC(=O)CCC4=C32)cc1 (some centres undefined)	16	6
